The supplement of paper PMC13207355
± gives the standard deviation of the averaged measurements.

Experiments:
Conditions in all cases: exposure time: 72 h
E13 [1] = patient-derived glioblastoma stem cells of classical subtype; assay: surviving fraction (nuclei count normalised to DMSO); higher = more cells surviving (less toxic)
E21 [2] = patient-derived glioblastoma stem cells of mesenchymal subtype; assay: as above
E28 [3] = patient-derived glioblastoma stem cells of classical subtype; assay: as above
E34 [4] = patient-derived glioblastoma stem cells of proneural subtype; assay: as above
E57 [5] = patient-derived glioblastoma stem cells of mesenchymal subtype; assay: as above
FT3469 [6] = normal neural stem cell line; assay: as above
E13 [7] = assay: phenotypic distance (Euclidean, principal components) from DMSO controls (arbitrary units); higher = stronger morphological change
E21 [8] = assay: as above
E28 [9] = assay: as above
E34 [10] = assay: as above
E57 [11] = assay: as above
FT3469 [12] = assay: as above
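For phenotypic distance (Euclidean, principal components) from DMSO controls in this document: cell Painting imaging in 384-well plates, CellProfiler features reduced to at least 20 principal components, Euclidean distance versus same-plate DMSO vehicle wells (0.1% v/v), median over six images per well.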
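For surviving fraction (nuclei count normalised to DMSO) in this document: nuclei counted by high-content imaging of Hoechst-stained cells in laminin-coated 384-well plates, relative to 0.1% DMSO vehicle wells, with staurosporine as cell-death control.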

In the case of `Cc1cc(C)c(CN2CCc3c(Cl)cc(-c4c(C)noc4C)c(Cl)c3C2=O)c(=O)[nH]1`, the surviving fraction (E13 [1]; 4.1 nM) is reported as 1.06, the surviving fraction (E13 [1]; 4.11523 nM) is reported as 0.856 and the surviving fraction (E13 [1]; 12.3 nM) is reported as 1.14. For the same molecule, the surviving fraction (E13 [1]; 12.34567901 nM) was 0.965, the surviving fraction (E13 [1]; 37 nM) was 0.832 and the surviving fraction (E13 [1]; 37.037 nM) was 1. The surviving fraction (E13 [1]; 111.1 nM) was 1.12, the surviving fraction (E13 [1]; 111.1111111 nM) was 1.02 and the surviving fraction (E13 [1]; 333.3 nM) was 0.891. For the same molecule, the surviving fraction (E13 [1]; 333.333 nM) was 1.06, the surviving fraction (E13 [1]; 1000 nM) was 1.01 ± 0.038 and the surviving fraction (E13 [1]; 3000 nM) was 0.89 ± 0.063. It also gave a surviving fraction (E21 [2]; 4.1 nM) of 0.906, a surviving fraction (E21 [2]; 4.11523 nM) of 0.889 and a surviving fraction (E21 [2]; 12.3 nM) of 1.06. For the same molecule, the surviving fraction (E21 [2]; 12.34567901 nM) was 0.956, the surviving fraction (E21 [2]; 37 nM) was 0.952 and the surviving fraction (E21 [2]; 37.037 nM) was 0.858. It also gave a surviving fraction (E21 [2]; 111.1 nM) of 1.03, a surviving fraction (E21 [2]; 111.1111111 nM) of 1.03 and a surviving fraction (E21 [2]; 333.3 nM) of 0.966. The surviving fraction (E21 [2]; 333.333 nM) was 0.985, the surviving fraction (E21 [2]; 1000 nM) was 0.973 ± 0.022 and the surviving fraction (E21 [2]; 3000 nM) was 0.984 ± 0.076. For the same molecule, the surviving fraction (E28 [3]; 4.1 nM) was 0.912, the surviving fraction (E28 [3]; 4.11523 nM) was 1.06 and the surviving fraction (E28 [3]; 12.3 nM) was 1.07. It also gave a surviving fraction (E28 [3]; 12.34567901 nM) of 0.996, a surviving fraction (E28 [3]; 37 nM) of 0.901 and a surviving fraction (E28 [3]; 37.037 nM) of 1.05. The surviving fraction (E28 [3]; 111.1 nM) was 0.947, the surviving fraction (E28 [3]; 111.1111111 nM) was 0.947 and the surviving fraction (E28 [3]; 333.3 nM) was 0.95. For the same molecule, the surviving fraction (E28 [3]; 333.333 nM) was 1.17, the surviving fraction (E28 [3]; 1000 nM) was 0.98 ± 0.18 and the surviving fraction (E28 [3]; 3000 nM) was 0.991 ± 0.028. The surviving fraction (E34 [4]; 4.1 nM) was 0.921, the surviving fraction (E34 [4]; 4.11523 nM) was 0.993 and the surviving fraction (E34 [4]; 12.3 nM) was 1.13. It also gave a surviving fraction (E34 [4]; 12.34567901 nM) of 0.993, a surviving fraction (E34 [4]; 37 nM) of 0.811 and a surviving fraction (E34 [4]; 37.037 nM) of 0.929. For the same molecule, the surviving fraction (E34 [4]; 111.1 nM) was 1.11, the surviving fraction (E34 [4]; 111.1111111 nM) was 0.938 and the surviving fraction (E34 [4]; 333.3 nM) was 0.85. It also gave a surviving fraction (E34 [4]; 333.333 nM) of 1.01, a surviving fraction (E34 [4]; 1000 nM) of 0.861 ± 0.086 and a surviving fraction (E34 [4]; 3000 nM) of 0.96 ± 0.036. It also gave a surviving fraction (E57 [5]; 4.1 nM) of 0.932, a surviving fraction (E57 [5]; 4.11523 nM) of 0.986 and a surviving fraction (E57 [5]; 12.3 nM) of 0.955. For the same molecule, the surviving fraction (E57 [5]; 12.34567901 nM) was 0.938, the surviving fraction (E57 [5]; 37 nM) was 1.02 and the surviving fraction (E57 [5]; 37.037 nM) was 1.04. It also gave a surviving fraction (E57 [5]; 111.1 nM) of 0.932, a surviving fraction (E57 [5]; 111.1111111 nM) of 1.01 and a surviving fraction (E57 [5]; 333.3 nM) of 1. It also gave a surviving fraction (E57 [5]; 333.333 nM) of 1.01, a surviving fraction (E57 [5]; 1000 nM) of 1.02 ± 0.025 and a surviving fraction (E57 [5]; 3000 nM) of 1.06 ± 0.093. For the same molecule, the surviving fraction (FT3469 [6]; 4.1 nM) was 0.866, the surviving fraction (FT3469 [6]; 4.11523 nM) was 0.918 and the surviving fraction (FT3469 [6]; 12.3 nM) was 0.934. For the same molecule, the surviving fraction (FT3469 [6]; 12.34567901 nM) was 0.961, the surviving fraction (FT3469 [6]; 37 nM) was 0.862 and the surviving fraction (FT3469 [6]; 37.037 nM) was 0.857. It also gave a surviving fraction (FT3469 [6]; 111.1 nM) of 0.892, a surviving fraction (FT3469 [6]; 111.1111111 nM) of 1.05 and a surviving fraction (FT3469 [6]; 333.3 nM) of 0.977. For the same molecule, the surviving fraction (FT3469 [6]; 333.333 nM) was 0.9, the surviving fraction (FT3469 [6]; 1000 nM) was 0.914 ± 0.063 and the surviving fraction (FT3469 [6]; 3000 nM) was 0.971 ± 0.035. It also gave a phenotypic distance (E13 [7]; 4.1 nM) of 0.55, a phenotypic distance (E13 [7]; 4.11523 nM) of 0.762 and a phenotypic distance (E13 [7]; 12.3 nM) of 0.528. It also gave a phenotypic distance (E13 [7]; 12.34567901 nM) of 0.464, a phenotypic distance (E13 [7]; 37 nM) of 0.636 and a phenotypic distance (E13 [7]; 37.037 nM) of 0.555. It also gave a phenotypic distance (E13 [7]; 111.1 nM) of 0.599, a phenotypic distance (E13 [7]; 111.1111111 nM) of 0.586 and a phenotypic distance (E13 [7]; 333.3 nM) of 0.546. The phenotypic distance (E13 [7]; 333.333 nM) was 2.27, the phenotypic distance (E13 [7]; 1000 nM) was 0.5296 ± 0.00081 and the phenotypic distance (E13 [7]; 3000 nM) was 1.67 ± 0.87. For the same molecule, the phenotypic distance (E21 [8]; 4.1 nM) was 0.846, the phenotypic distance (E21 [8]; 4.11523 nM) was 0.624 and the phenotypic distance (E21 [8]; 12.3 nM) was 0.502. The phenotypic distance (E21 [8]; 12.34567901 nM) was 0.663, the phenotypic distance (E21 [8]; 37 nM) was 0.782 and the phenotypic distance (E21 [8]; 37.037 nM) was 0.448. It also gave a phenotypic distance (E21 [8]; 111.1 nM) of 0.333, a phenotypic distance (E21 [8]; 111.1111111 nM) of 2.67 and a phenotypic distance (E21 [8]; 333.3 nM) of 1.29. It also gave a phenotypic distance (E21 [8]; 333.333 nM) of 0.358, a phenotypic distance (E21 [8]; 1000 nM) of 0.536 ± 0.2 and a phenotypic distance (E21 [8]; 3000 nM) of 0.603 ± 0.36. For the same molecule, the phenotypic distance (E28 [9]; 4.1 nM) was 0.563, the phenotypic distance (E28 [9]; 4.11523 nM) was 0.484 and the phenotypic distance (E28 [9]; 12.3 nM) was 0.447. It also gave a phenotypic distance (E28 [9]; 12.34567901 nM) of 0.539, a phenotypic distance (E28 [9]; 37 nM) of 0.798 and a phenotypic distance (E28 [9]; 37.037 nM) of 0.532. It also gave a phenotypic distance (E28 [9]; 111.1 nM) of 0.371, a phenotypic distance (E28 [9]; 111.1111111 nM) of 2.05 and a phenotypic distance (E28 [9]; 333.3 nM) of 0.616. For the same molecule, the phenotypic distance (E28 [9]; 333.333 nM) was 0.607, the phenotypic distance (E28 [9]; 1000 nM) was 0.701 ± 0.3 and the phenotypic distance (E28 [9]; 3000 nM) was 0.617 ± 0.34. It also gave a phenotypic distance (E34 [10]; 4.1 nM) of 0.88, a phenotypic distance (E34 [10]; 4.11523 nM) of 0.409 and a phenotypic distance (E34 [10]; 12.3 nM) of 0.682. It also gave a phenotypic distance (E34 [10]; 12.34567901 nM) of 0.739, a phenotypic distance (E34 [10]; 37 nM) of 1.1 and a phenotypic distance (E34 [10]; 37.037 nM) of 0.359. It also gave a phenotypic distance (E34 [10]; 111.1 nM) of 0.667, a phenotypic distance (E34 [10]; 111.1111111 nM) of 0.478 and a phenotypic distance (E34 [10]; 333.3 nM) of 1.23. For the same molecule, the phenotypic distance (E34 [10]; 333.333 nM) was 0.552, the phenotypic distance (E34 [10]; 1000 nM) was 0.66 ± 0.035 and the phenotypic distance (E34 [10]; 3000 nM) was 1.1 ± 0.52. It also gave a phenotypic distance (E57 [11]; 4.1 nM) of 0.289, a phenotypic distance (E57 [11]; 4.11523 nM) of 0.517 and a phenotypic distance (E57 [11]; 12.3 nM) of 0.432. It also gave a phenotypic distance (E57 [11]; 12.34567901 nM) of 0.412, a phenotypic distance (E57 [11]; 37 nM) of 0.351 and a phenotypic distance (E57 [11]; 37.037 nM) of 0.334. The phenotypic distance (E57 [11]; 111.1 nM) was 0.307, the phenotypic distance (E57 [11]; 111.1111111 nM) was 0.418 and the phenotypic distance (E57 [11]; 333.3 nM) was 0.28. For the same molecule, the phenotypic distance (E57 [11]; 333.333 nM) was 0.343, the phenotypic distance (E57 [11]; 1000 nM) was 0.373 ± 0.028 and the phenotypic distance (E57 [11]; 3000 nM) was 0.511 ± 0.018. The phenotypic distance (FT3469 [12]; 4.1 nM) was 0.799, the phenotypic distance (FT3469 [12]; 4.11523 nM) was 0.574 and the phenotypic distance (FT3469 [12]; 12.3 nM) was 0.456. It also gave a phenotypic distance (FT3469 [12]; 12.34567901 nM) of 0.531, a phenotypic distance (FT3469 [12]; 37 nM) of 3.66 and a phenotypic distance (FT3469 [12]; 37.037 nM) of 0.66. The phenotypic distance (FT3469 [12]; 111.1 nM) was 0.618, the phenotypic distance (FT3469 [12]; 111.1111111 nM) was 0.467 and the phenotypic distance (FT3469 [12]; 333.3 nM) was 0.925. The phenotypic distance (FT3469 [12]; 333.333 nM) was 1.74, the phenotypic distance (FT3469 [12]; 1000 nM) was 0.694 ± 0.16 and the phenotypic distance (FT3469 [12]; 3000 nM) was 0.451 ± 0.024.
